{
  "source": "patent US10292957B2",
  "about": "“Compositions and methods for treating fibromyalgia” (Quality IP Holdings, LLC, priority 2012, dated 2019)",
  "origin": "cited, not measured here",
  "key": {"[1]": {"tested_on": "hGH secretion", "settings": "for Effect on hGH: other amino acids, literature"}, "[2]": {"tested_on": "patients with fibromyalgia", "settings": "4 days treatment"}, "[3]": {"settings": "after subcutaneous injection of 0.06 IU, hGH deficient subjects"}, "[4]": {"tested_on": "patients with severe fibromyalgia and low insulin-like growth factor 1 levels"}, "[5]": {"tested_on": "fibromyalgia patients with low IGF-1 levels"}, "[6]": {"tested_on": "women with fibromyalgia and low IGF-1 levels"}, "[7]": {"tested_on": "HGH-deficient adults", "settings": "within months of hGH treatment"}},
  "data": [
    {"compound": "N=C(N)NCCC[C@H](N)C(=O)O", "note": "[arginine]", "values": [
      {"measurement": "Elevation of serum hGH levels", "setting": "[1]; 30 g, males", "result": 8.6, "unit": "fold"},
      {"measurement": "Increase of hGH levels", "setting": "[1]; intravenous infusion of 183 mg/kg body weight, females", "result": "> 20", "unit": "fold"}
    ]},
    {"compound": "NCCCC[C@H](N)C(=O)O", "note": "[lysine]", "values": [
      {"measurement": "Effect on hGH", "setting": "[1]", "result": "marked increases"}
    ]},
    {"compound": "NCCC[C@H](N)C(=O)O", "note": "[ornithine]", "values": [
      {"measurement": "Effect on hGH", "setting": "[1]", "result": "marked increases"}
    ]},
    {"compound": "N[C@@H](Cc1c[nH]cn1)C(=O)O", "note": "[histidine]", "values": [
      {"measurement": "Effect on hGH", "setting": "[1]", "result": "marked increases"}
    ]},
    {"compound": "N[C@@H](Cc1ccccc1)C(=O)O", "note": "[phenylalanine]", "values": [
      {"measurement": "Effect on hGH", "setting": "[1]", "result": "marked increases"}
    ]},
    {"compound": "hGH: human growth hormone, injectable", "values": [
      {"measurement": "Plasma IGF-1 levels", "setting": "[2]", "result": "increase"},
      {"measurement": "Plasma IGF-BP3 levels", "setting": "[2]", "result": "increase"},
      {"measurement": "Mean levels of hGH reached", "setting": "[3]", "result": 0.4, "unit": "ng/mL"},
      {"measurement": "Pain", "setting": "[4]; addition to the standard treatment, sustained action over time", "result": "effective in reducing pain"},
      {"measurement": "FIQ scores compared with placebo group", "setting": "[4]; low-dose add-on to standard treatment, 120 patients", "result": "significantly improved"},
      {"measurement": "Tolerability of concomitant administration with standard therapy", "setting": "[5]; no patients discontinued due to adverse events", "result": "well tolerated"},
      {"measurement": "Reduction in the mean number of tender points (pairs) compared to the control group", "setting": "[5]; subcutaneous, added to standard therapy, one year, end of study", "result": 60, "unit": "%"},
      {"measurement": "FIQ score and tender point score over the placebo group", "setting": "[6]; at nine months", "result": "significant improvement"},
      {"measurement": "IGF-1 levels", "setting": "[6]; daily subcutaneous injections", "result": "prompt and sustained increase"},
      {"measurement": "Lean body mass, skin thickness and muscle mass", "setting": "[7]", "result": "gains"}
    ]},
    {"compound": "CSCC[C@H](N)C(=O)O", "note": "[methionine]", "values": [
      {"measurement": "Effect on hGH", "setting": "[1]", "result": "marked increases"}
    ]}
  ]
}
